The values below come from PMC4571936, “Pre-steady-state Kinetic Analysis of a Family D DNA Polymerase from Thermococcus sp. 9°N Reveals Mechanisms for Archaeal Genomic Replication and Maintenance” (The Journal of Biological Chemistry, 2015).

Experiment [1] has as its target T1, 9°N polD^− (exonuclease-deficient polD mutant H554A).
T1 construct: gene polC; recombinant purified heterodimer of large and small subunit, ~1:1; with DNA polymerase II small subunit
As to the kind of experiment: pre-steady-state single-turnover nucleotide incorporation, rapid chemical quench, capillary electrophoresis. Conditions: apparent Kd, correct pairing, 2 mM MgSO4, ThermoPol buffer pH 8.8 (at 25 °C), 60 °C. Type of experiment: biochemical, Thermococcus sp. 9°N.

Experiment [2] has the same target. As to the kind of experiment: pre-steady-state single-turnover nucleotide incorporation, rapid chemical quench, denaturing gel electrophoresis. Type of experiment: biochemical, Thermococcus sp. 9°N. Conditions: apparent Kd; correct pairing, template G with 5'-FAM 50-mer primer; 2 mM MgSO4, ThermoPol buffer pH 8.8 (at 25 °C), 60 °C.
Description: pre-steady-state single-turnover nucleotide incorporation, rapid chemical quench, denaturing gel electrophoresis on 9°N polD^− (exonuclease-deficient polD mutant H554A)

On to `Nc1ncnc2c1ncn2[C@H]1C[C@H](O)[C@@H](COP(=O)(O)OP(=O)(O)OP(=O)(O)O)O1` [dATP], for which the Kd in experiment [1] (template T with 5'-FAM 50-mer primer) came to 2500 ± 100 nM. Turning to `Nc1ccn([C@H]2C[C@H](O)[C@@H](COP(=O)(O)OP(=O)(O)OP(=O)(O)O)O2)c(=O)n1` [dCTP], the Kd in experiment [2] amounted to 1700 ± 100 nM. As to `Nc1nc2c(ncn2[C@H]2C[C@H](O)[C@@H](COP(=O)(O)OP(=O)(O)OP(=O)(O)O)O2)c(=O)[nH]1` [dGTP], the Kd in experiment [1] (template C with 5'-FAM 50-mer primer) was 900 ± 300 nM. Turning to `Cc1cn([C@H]2C[C@H](O)[C@@H](COP(=O)(O)OP(=O)(O)OP(=O)(O)O)O2)c(=O)[nH]c1=O` [dTTP], the Kd in experiment [1] (A Template-1 with 5'-FAM 50-mer primer) came out at 1600 ± 100 nM.
